# System: primary mouse hepatocytes
# Test: Gene expression (Affymetrix Mouse Genome 430 2.0) in primary mouse hepatocytes, true vs false GTX, 24 h and 48 h
# Conditions: log2, corrected for vehicle control
structure (smiles),measurement,setting,value
"CN(C)N=O [DMN, Dimethylnitrosamine]",Gene expression data AF000969 (Cadps2),24 h average,−1.039
same,Gene expression data AF022072 (Grb10),24 h average,−1.913
same,Gene expression data AF065917 (Lif),24 h average,1.804
same,Gene expression data AF204959 (Cyp3a25 /// LOC622249),24 h average,−0.2993
same,Gene expression data AF297615 (Ggta1),24 h average,3.2188
same,Gene expression data AI594683 (Dmn),24 h average,3.164
same,Gene expression data AI596632 (Ptprg /// LOC632664),24 h average,−1.9
same,Gene expression data AI987929 (Ndrg1),24 h average,−0.9838
same,Gene expression data AK004419 (Fbxl17),24 h average,−1.22
same,Gene expression data AK005731 (1700007K13Rik),24 h average,5.486
same,Gene expression data AK007766 (1810044A24Rik),24 h average,−0.8706
same,Gene expression data AK007854 (1810053B23Rik),24 h average,2.173
same,Gene expression data AK009736 (Gpr137b /// LOC664862 /// LOC673335),24 h average,−0.8367
same,Gene expression data AK010447 (Smyd3),24 h average,−1.0358
same,Gene expression data AK014608 (4632434l11Rik),24 h average,1.756
same,Gene expression data AK019979 (2610528E23Rik),24 h average,−1.324
same,Gene expression data AV095209 (Mthfd1l),24 h average,−1.007
same,Gene expression data AV141095 (1110033M05Rik),24 h average,−1.375
same,Gene expression data AV173571 (1700106N22Rik),24 h average,−1.0106
same,Gene expression data AV219418 (Ldhb),24 h average,2.743
same,Gene expression data AV223474 (Zdhhc14),24 h average,−0.9067
same,Gene expression data AV298304 (Homez),24 h average,1.8715
same,Gene expression data AV327248 (Zfp365 /// LOC674611),24 h average,4.114
same,Gene expression data AV377066 (9130221J18Rik),24 h average,0.9605
same,Gene expression data AW240761 (Tbc1d5),24 h average,−1.191
same,Gene expression data AW543460 (Pard3),24 h average,−1.4802
same,Gene expression data AW543723,24 h average,1.95
same,Gene expression data AW986246 (Maoa),24 h average,−0.372
same,Gene expression data BB027848 (4732466D17Rik),24 h average,1.126
same,Gene expression data BB043558 (9230114K14Rik),24 h average,2.407
same,Gene expression data BB275142 (AW456874),24 h average,1.902
same,Gene expression data BB308836 (Ppm1l),24 h average,−0.9881
same,Gene expression data BB318221 (Zdhhc14),24 h average,−1.041
same,Gene expression data BB463610 (4632434l11Rik),24 h average,1.9965
same,Gene expression data BB526605 (Mipol1),24 h average,−1.5816
same,Gene expression data BB770528 (Rai2),24 h average,2.8
same,Gene expression data BB821363 (Scfd2),24 h average,−1.143
same,Gene expression data BC004827 (Psat1),24 h average,−1.518
same,Gene expression data BC008626 (Icam1),24 h average,2.035
same,Gene expression data BC010462 (BC010462),24 h average,0.7519
same,Gene expression data BC012247 (Dcxr),24 h average,1.6567
same,Gene expression data BC012260 (Psmf1),24 h average,1.0548
same,Gene expression data BC015270 (Hist2h3c2),24 h average,0.9816
same,Gene expression data BC016073 (Cdkal1),24 h average,−1.243
same,Gene expression data BC016265 (Ube2e2),24 h average,−1.287
same,Gene expression data BC019882 (Acaa1b),24 h average,2.057
same,Gene expression data BC025501 (Aaas),24 h average,1.6386
same,Gene expression data BC025837 (Sbk1),24 h average,0.9087
same,Gene expression data BC025915 (Cova1),24 h average,−0.9502
same,Gene expression data BC026422 (Tgm1),24 h average,2.22
same,Gene expression data BF719766 (Thyn1),24 h average,1.824
same,Gene expression data BG065754 (Ccng1),24 h average,0.9587
same,Gene expression data BG066903 (Kif16b),24 h average,−0.8682
same,Gene expression data BG069873 (Gnb1l),24 h average,2.2987
same,Gene expression data BG070887 (Gtdc1),24 h average,−1.112
same,Gene expression data BG076151 (Ppm1d),24 h average,1.946
same,Gene expression data BG261907 (Large),24 h average,−1.3871
same,Gene expression data BI651416 (Cdc42bpg),24 h average,1.7218
same,Gene expression data BI660702 (Ell3),24 h average,2.514
same,Gene expression data BM198879 (Ercc5),24 h average,1.2634
same,Gene expression data BM230508 (A030007D23Rik),24 h average,2.304
same,Gene expression data NM_007987 (Fas),24 h average,2.421
same,Gene expression data NM_008522 (Ltf),24 h average,3.616
same,Gene expression data NM_008576 (Abcc1),24 h average,−0.9295
same,Gene expression data NM_011176 (St14),24 h average,1.574
same,Gene expression data NM_011316 (Saa4),24 h average,2.1585
same,Gene expression data NM_012006 (Acot1),24 h average,2.033
same,Gene expression data NM_013866 (Zfp385),24 h average,2.361
same,Gene expression data NM_018770 (Igsf4a),24 h average,−0.8412
same,Gene expression data NM_021451 (Pmaip1),24 h average,3.698
same,Gene expression data NM_025770 (Atg10),24 h average,−0.5113
same,Gene expression data NM_028803 (Gbe1),24 h average,−1.103
same,Gene expression data NM_030697 (Ankrd47),24 h average,3.211
same,Gene expression data NM_053168 (Trim11),24 h average,1.0583
same,Gene expression data NM_134188 (Acot2),24 h average,−0.5001
same,Gene expression data Y15910 (Diap2),24 h average,−1.636
same,Gene expression AA561726 average,48 h,−0.3534
same,Gene expression AF000969 average,48 h,−1.114
same,Gene expression AF022072 average,48 h,−1.2797
same,Gene expression AF033112 average,48 h,1.817
same,Gene expression AF055573 average,48 h,−1.913
same,Gene expression AF069954 average,48 h,1.631
same,Gene expression AF297615 average,48 h,3.153
same,Gene expression AF335325 average,48 h,1.6857
same,Gene expression AI594683 average,48 h,3.7761
same,Gene expression AI747296 average,48 h,−0.4333
same,Gene expression AK005731 average,48 h,4.617
same,Gene expression AK007854 average,48 h,0.8396
same,Gene expression AK010447 average,48 h,−0.8634
same,Gene expression AK010738 average,48 h,1.343
same,Gene expression AK014608 average,48 h,1.391

# From US20120122727A1, “IN VITRO METHOD FOR PREDICTING WHETHER A COMPOUND IS GENOTOXIC IN VIVO” (priority 2009, published 2012)
